These results are taken from patent publication US6500842B1, “8-hydroxy-7-substituted quinolines as anti-viral agents” (Pharmacia & Upjohn Company, priority 1996, dated 2002).

SMILES strings stand for the structures. Several values for one entry are separate records, joined by “and”; a condition that tells them apart may be missing. Equal values may be shown once. Some results are limits rather than exact numbers.

T2 sequence (P08546 whole entry): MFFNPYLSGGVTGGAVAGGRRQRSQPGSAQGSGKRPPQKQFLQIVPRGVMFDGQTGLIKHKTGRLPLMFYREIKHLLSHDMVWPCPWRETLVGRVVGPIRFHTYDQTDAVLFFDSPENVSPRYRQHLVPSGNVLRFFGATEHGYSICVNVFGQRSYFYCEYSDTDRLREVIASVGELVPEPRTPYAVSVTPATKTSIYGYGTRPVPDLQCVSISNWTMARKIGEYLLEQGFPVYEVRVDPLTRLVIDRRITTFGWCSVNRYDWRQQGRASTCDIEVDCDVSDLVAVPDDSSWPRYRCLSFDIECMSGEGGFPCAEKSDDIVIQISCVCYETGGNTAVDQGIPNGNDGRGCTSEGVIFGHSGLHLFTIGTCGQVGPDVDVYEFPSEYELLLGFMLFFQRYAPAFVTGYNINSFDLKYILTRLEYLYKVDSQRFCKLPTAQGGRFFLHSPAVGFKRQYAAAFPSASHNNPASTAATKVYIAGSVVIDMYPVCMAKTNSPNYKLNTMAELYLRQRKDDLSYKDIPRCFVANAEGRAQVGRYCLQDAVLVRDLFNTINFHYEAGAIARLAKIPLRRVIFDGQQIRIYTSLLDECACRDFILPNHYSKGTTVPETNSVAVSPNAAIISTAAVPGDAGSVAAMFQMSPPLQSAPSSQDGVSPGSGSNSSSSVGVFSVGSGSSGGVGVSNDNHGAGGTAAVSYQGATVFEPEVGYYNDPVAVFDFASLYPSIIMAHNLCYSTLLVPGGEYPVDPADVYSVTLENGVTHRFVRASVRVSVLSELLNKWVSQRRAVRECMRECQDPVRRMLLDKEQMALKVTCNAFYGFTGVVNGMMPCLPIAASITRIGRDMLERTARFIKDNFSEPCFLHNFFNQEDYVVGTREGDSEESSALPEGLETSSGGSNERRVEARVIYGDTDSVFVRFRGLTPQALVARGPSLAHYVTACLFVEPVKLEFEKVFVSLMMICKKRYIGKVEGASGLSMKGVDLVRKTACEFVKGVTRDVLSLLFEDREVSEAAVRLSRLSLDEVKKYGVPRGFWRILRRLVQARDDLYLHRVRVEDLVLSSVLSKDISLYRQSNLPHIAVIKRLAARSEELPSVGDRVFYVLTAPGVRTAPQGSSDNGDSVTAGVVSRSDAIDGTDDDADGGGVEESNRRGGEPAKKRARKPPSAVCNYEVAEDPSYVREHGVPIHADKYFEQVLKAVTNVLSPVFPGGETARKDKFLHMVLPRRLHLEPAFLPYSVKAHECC

For the first assay, the target named is T1, CMV polymerase (Human cytomegalovirus, UniProt P08546).
T1 construct: made in house; host or cells: recombinant baculovirus-infected SF-9 cells
T1 sequence (P08546 whole entry): as above
Nature of the assay: modified version of the HCMV polymerase assay (100% DMSO dilution, DTT, different enzyme lot). The assay is classed as biochemical. As to conditions: Polymerase CMV; Table 7; read-out: Antiviral Selective Polymerase IC50 Values - IC50. The procedure: (§1) The HCMV polymerase assay is performed using a scintillation proximity assay (SPA) as described in several references, such as N. D. Cook, et al., Pharmaceutical Manufacturing International, pages 49-53 (1992); K. Takeuchi, Laboratory Practice, September issue (1992); U.S. Pat. No. 4,568,649 (1986); which are incorporated by reference herein. Reactions are performed in 96-well plates. The assay is conducted in 100 μl volume with 5.4 mM HEPES (pH 7.5), 11.7 mM KCl, 4.5 mM MgCl2, 0.36 mg/ml BSA, and 90 nM ^3H-dTTP. Assays are run with and without CHAPS, (3-[(3-Cholamidopropyl)-dimethylammonio]-1-propane-sulfonate) at a final concentration of 2 mM. HCMV is diluted in enzyme dilution buffer containing 50% glycerol, 250 mM NaCl, 10 mM HEPES (pH 7.5), 100 pg/ml BSA, and 0.01% sodium azide. The HCMV polymerase, which is expressed in recombinant baculovirus-infected SF-9 cells and purified according to literature procedures, is added at 10% (or 10 μl) of the final reaction volume, i.e., 100 μl. Compounds are diluted in 50% DMSO and 10 μl are added to each well. Control wells contain an equivalent concentration of DMSO. Unless noted otherwise, reactions are initiated via the addition of 6 nM biotinylated poly(dA)-oligo(dT) template/primer to reaction mixtures containing the enzyme, substrate, and compounds of interest. Plates are incubated in a 25° C. of 37° C. H2O bath and terminated via the addition of 40 μl/reaction of 0.5 M EDTA (pH 8) per well. Reactions are terminated within the time-frame during which substrate incorporation is linear and varied depending upon the enzyme and conditions used, i.e., 30 min. for HCMV polymerase. Ten μl of streptavidin-SPA beads (20 mg/ml in PBS/10% glycerol) are added following termination of the reaction. Plates are incubated 10 min. at 37° C., then equilibrated to room temperature, and counted on a Packard Topcount. Linear regressions are performed and IC50's are calculated using computer software. Results of the testing of compounds of the present invention in this assay are shown in Tables 1, 2, 5, 9, 10, 11, 13 (except for the last compound which was tested under modified conditions) and 14 below.
A modified version of the above HCMV polymerase assay is performed as described above, but with the following changes: Compounds are diluted in 100% DMSO until final dilution into assay buffer. In the previous assay, compounds are diluted in 50% DMSO. 4.5 mM dithiotherotol (DTT) is added to the polymerase buffer.
By IC50 is commonly meant the point on the concentration scale where inhibition reaches its midpoint. With `Cc1ccc2c(Cl)cc(C(=O)NCCSc3ccccc3)c(O)c2n1` [drawing 127], the IC50 amounted to 42.8 µM.

Another assay has as its target T2, HCMV polymerase (Human cytomegalovirus, UniProt P08546).
T2 construct: made in house; host or cells: recombinant baculovirus-infected SF-9 cells
Nature of the assay: HCMV polymerase assay (scintillation proximity assay). The assay is classed as biochemical. To be noted: Conc 1.00e−004 M; Table 2. The procedure: as §1
In the case of `O=S(=O)(NCc1ccccc1)c1cc(Cl)c2cccnc2c1O` [Example 22, 5-Chloro-8-hydrxoy-N-(phenylmehtyl)-7-quinolinesulfonamide], the “% Inhib” value was 98.2% and 99.7%.

Staying with this assay, now noted: Conc 1.30e−005 M; Table 2.
In the case of `O=S(=O)(NCc1ccccc1)c1cc(Cl)c2cccnc2c1O` [Example 22, 5-Chloro-8-hydrxoy-N-(phenylmehtyl)-7-quinolinesulfonamide], the “% Inhib” value was 68.9% and 78.3%.

Staying with this assay, now noted: Conc 2.50e−005 M; Table 2.
Consider `O=S(=O)(NCc1ccccc1)c1cc(Cl)c2cccnc2c1O` [Example 22, 5-Chloro-8-hydrxoy-N-(phenylmehtyl)-7-quinolinesulfonamide], for which the “% Inhib” value was 90.7% and 95.2%.

Still in this assay, the particulars now being: Conc 5.00e−005 M; Table 2.
For the compound `O=S(=O)(NCc1ccccc1)c1cc(Cl)c2cccnc2c1O` [Example 22, 5-Chloro-8-hydrxoy-N-(phenylmehtyl)-7-quinolinesulfonamide], the “% Inhib” value was 96.7% and 98.6%.

Staying with this assay, now noted: Conc 6.25e−006 M; Table 2.
Regarding `O=S(=O)(NCc1ccccc1)c1cc(Cl)c2cccnc2c1O` [Example 22, 5-Chloro-8-hydrxoy-N-(phenylmehtyl)-7-quinolinesulfonamide], the “% Inhib” value was 33.3% and 51.5%.

The assay is the same for the next values; noted with them: IC50 uM, Table 10; CMV pol Assay.
`O=C(Nc1ccc2c(C(F)(F)F)cc(=O)oc2c1)c1ccc2cccnc2c1O` had a concentration for half-maximal inhibition (IC50) of 9.5 µM.

The assay is the same for the next values; noted with them: Table 9; read-out: CMV pol Assay- IC50.
With `O=C(NCCSc1ccccc1)c1ccc2cccnc2c1O`, the IC50 was determined as 9.2 µM.
On the same count and under the same terms, the figure for `CC(NC(=O)c1ccc2cccnc2c1O)c1ccccc1` (stereo not drawn) is 22.2 µM; for `CCCCCCC(C)NC(=O)c1ccc2cccnc2c1O` (stereo not drawn) it is 1.7 µM.
As to `O=C(NCC(c1ccccc1)c1ccccc1)c1ccc2cccnc2c1O`, the IC50 was determined as 0.9 µM.
The same measure, in the same setting: the result for `O=C(NCc1c(F)cccc1F)c1ccc2cccnc2c1O` reads 7.1 µM; that for `O=C(N[C@H](CO)Cc1ccc(O)cc1)c1ccc2cccnc2c1O`, 3.1 µM.
In the case of `O=C(NC1CCCCCC1)c1ccc2cccnc2c1O`, the half-inhibitory concentration (IC50) is 23.8 µM.
The same measure, in the same setting: the figure for `COC(=O)[C@H](Cc1ccc(OCc2ccccc2)cc1)NC(=O)c1ccc2cccnc2c1O` is 4.9 µM; for `O=C(NCCCCc1ccccc1)c1ccc2cccnc2c1O` it is 7.4 µM; for `O=C(NCCCc1ccccc1)c1ccc2cccnc2c1O` it is 9.3 µM.
Take `O=C(NCc1ccc(C(F)(F)F)cc1)c1ccc2cccnc2c1O`: the 50% inhibitory concentration (IC50) is 13.7 µM.
Still for that read-out and setting: the result for `O=C(NC1CCCc2ccccc21)c1ccc2cccnc2c1O` (stereo not drawn) reads 7.6 µM; that for `O=C(NCc1ccccc1Sc1ccccc1CO)c1ccc2cccnc2c1O`, 9.4 µM.
The same measure, in the same setting: the result for `CCCCCCCCCCCCCCCCCCNC(=O)c1ccc2cccnc2c1O` reads 20.7 µM; that for `COc1cc(CNC(=O)c2ccc3cccnc3c2O)ccc1O`, 19.3 µM; that for `CCCCC(CC)CNC(=O)c1ccc2cccnc2c1O` (stereo not drawn), 3.2 µM.
On the same count and under the same terms, the result for `O=C(NCCc1ccc(O)cc1)c1ccc2cccnc2c1O` reads 20.1 µM; that for `O=C(NCc1cccc2ccccc12)c1ccc2cccnc2c1O`, 3.7 µM; that for `CCCCCCCNC(=O)c1ccc2cccnc2c1O`, 5.2 µM.
As for `C[C@@H](NC(=O)c1ccc2cccnc2c1O)c1cccc2ccccc12`, the IC50 was < 3.1 µM and 2.4 µM and 10.8 µM.
As to `Cc1ccccc1CNC(=O)c1ccc2cccnc2c1O`, the IC50 amounted to 23.2 µM.
On the same count and under the same terms, the result for `CC(C)(C)OC(=O)[C@H](Cc1ccc(O)cc1)NC(=O)c1ccc2cccnc2c1O` reads 8.1 µM.
The same measure, in the same setting: the result for `CCCCCC(C)NC(=O)c1ccc2cccnc2c1O` (stereo not drawn) reads 7.9 µM.
Turning to `O=C(NCc1ccc(Cl)cc1Cl)c1ccc2cccnc2c1O`, the 50% inhibitory concentration (IC50) was 5.2 µM.

The assay is the same for the next values; noted with them: Table 10; CMV pol Assay; read-out: IC50.
As to `CCCc1ccc(NC(=O)c2ccc3cccnc3c2O)cc1`, the IC50 came out at 3.1 µM.
Turning to `O=C(Nc1ccc(S(=O)(=O)Nc2ccc3cn[nH]c3c2)cc1)c1ccc2cccnc2c1O`, the IC50 was determined as 2.4 µM.
On the same count and under the same terms, the result for `O=C(Nc1ccc(Oc2ccccc2)cc1)c1ccc2cccnc2c1O` reads 6.9 µM; that for `O=C(Nc1cccc(Cl)c1)c1ccc2cccnc2c1O`, 1.7 µM.
The same measure, in the same setting: the figure for `Cc1ccc(Cl)c(NC(=O)c2ccc3cccnc3c2O)c1` is 7.5 µM.
Consider `O=C(Nc1ccccc1Br)c1ccc2cccnc2c1O`, for which the IC50 amounted to 16 µM.
The same measure, in the same setting: the figure for `N#Cc1c(F)c(F)c(NC(=O)c2ccc3cccnc3c2O)c(F)c1F` is 18.5 µM; for `O=C(Nc1cccc(Br)c1)c1ccc2cccnc2c1O` it is 9.2 µM.
On to `O=C(Nc1cccc2ccccc12)c1ccc2cccnc2c1O`, for which the half-maximal inhibitory concentration (IC50) was 4.9 µM.
On to `O=C(Nc1ccccc1[N+](=O)[O-])c1ccc2cccnc2c1O`, for which the IC50 was over 100 µM.
Same read-out and setting: the result for `O=C(Nc1cc(F)cc(F)c1)c1ccc2cccnc2c1O` reads 26.3 µM; that for `O=C(Nc1cc(Cl)c(O)c(Cl)c1)c1ccc2cccnc2c1O`, 30.5 µM; that for `O=C(Nc1ccc(F)c(F)c1)c1ccc2cccnc2c1O`, 82.9 µM.
Still for that read-out and setting: the figure for `O=C(Nc1ccccc1F)c1ccc2cccnc2c1O` is 27.3 µM; for `O=C(Nc1ccc2cccc(O)c2n1)c1ccc2cccnc2c1O` it is 14.5 µM; for `COc1ccc(NC(=O)c2ccc3cccnc3c2O)cc1` it is 30.1 µM.
As to `Cc1cccc(NC(=O)c2ccc3cccnc3c2O)c1C`, the IC50 came out at 8.6 µM.
Still for that read-out and setting: the figure for `Cc1ccc(F)cc1NC(=O)c1ccc2cccnc2c1O` [drawing 222] is 14.7 µM.
As for `O=C(Nc1ccccc1Cl)c1ccc2cccnc2c1O`, the IC50 amounted to 9.4 µM.
In the case of `CSc1cccc(NC(=O)c2ccc3cccnc3c2O)c1`, the IC50 stood at 25.5 µM.
For the compound `O=C(Nc1ccc(OCc2ccccc2)cc1)c1ccc2cccnc2c1O`, the IC50 came to 4.1 µM.

The same assay, now with this note: Table 11; read-out: CMV pol Assay IC50.
In the case of `O=C(Nc1nnc(C(F)(F)F)s1)c1ccc2cccnc2c1O` [drawing 303], the IC50 was found to be 71 µM.
The same measure, in the same setting: the result for `O=C(Nc1nnc(NCCc2ccccc2)s1)c1ccc2cccnc2c1O` reads 2.4 µM.
Same read-out and setting: the result for `CC(C)(C)OC(=O)C(Nc1nnc(NC(=O)c2ccc3cccnc3c2O)s1)c1ccc2c(c1)OCO2` (stereo not drawn) reads 4.3 µM; that for `CC(C)(C)OC(=O)[C@H](Cc1ccc(O)cc1)Nc1nnc(NC(=O)c2ccc3cccnc3c2O)s1`, under 3.1 µM.

The assay is the same for the next values; noted with them: Table 13; read-out: IC50.
Regarding `O=C(NC1=NC(=O)C(c2cccc([N+](=O)[O-])c2)S1)c1ccc2cccnc2c1O` (stereo not drawn), the IC50 was 5.2 µM.
`O=C(NC1=NC(=O)C(Cc2ccc(Cl)cc2)S1)c1ccc2cccnc2c1O` (stereo not drawn): the IC50 is 1.7 µM.
On to `Cc1ccc2ccc(C(=O)Nc3ccc(Cl)cc3)c(O)c2n1`, for which the IC50 is 7.6 µM.

The same assay, now with this note: Table 14; 25 uM.
What is called inhibition is the change of the read-out against control, counted positive when it falls. Lower therefore signals a weak effect. In the case of `O=C(NCCc1ccccc1F)c1ccc2cccnc2c1O`, the inhibition at 25 µM stood at 39%.
Turning to `O=C(N[C@H](CO)Cc1ccccc1)c1ccc2cccnc2c1O`, the inhibition at 25 µM came out at 93%.

Staying with this assay, now noted: Table 14; read-out: IC50.
In the case of `O=C(NCc1ccc(F)cc1Cl)c1ccc2cccnc2c1O`, the IC50 amounted to 28 µM.
Take `O=C(NCCNc1ccc([N+](=O)[O-])cn1)c1ccc2cccnc2c1O`: the 50% inhibitory concentration (IC50) is 42 µM.
On the same count and under the same terms, the result for `O=C(NCc1ccc2c(c1)OCO2)c1ccc2cccnc2c1O` reads 26 µM; that for `O=C(NCCc1ccccc1Cl)c1ccc2cccnc2c1O`, 26 µM.
For the compound `CCOC(=O)C(Cc1ccccc1)NC(=O)c1ccc2cccnc2c1O` (stereo not drawn), the IC50 is 41 µM.
The same measure, in the same setting: the result for `O=C(NCc1cccs1)c1ccc2cccnc2c1O` reads 34 µM.
As for `O=C(NCc1ccc(F)c(F)c1)c1ccc2cccnc2c1O`, the IC50 was found to be 42 µM.
Turning to `O=C(N[C@@H](CO)c1ccccc1)c1ccc2cccnc2c1O`, the 50% inhibitory concentration (IC50) is 19 µM.
Still for that read-out and setting: the figure for `O=C(NCc1cc(Cl)cc(Cl)c1)c1ccc2cccnc2c1O` is 27 µM.

The assay is the same for the next values; noted with them: pol type CMV; Table 1; read-out: CMV pol Assay IC50.
Consider `O=C(NC1=NC(=O)C(c2ccc(Cl)cc2)S1)c1cc(Br)c2cccnc2c1O` (stereo not drawn) [Example 6, 5-Bromo-N-[5-(4-chlorophenyl)-4,5-dihydro-4-oxo-2-thiazolyl]-8-hydroxy-7-quinolinecarboxamide], for which the IC50 was 4.1 µM.

Still in this assay, the particulars now being: pol type CMV; Table 2; read-out: IC50.
Regarding `O=S(=O)(NCc1ccccc1)c1cc(Cl)c2cccnc2c1O` [Example 22, 5-Chloro-8-hydrxoy-N-(phenylmehtyl)-7-quinolinesulfonamide], the IC50 is 8.6 µM and 4.5 µM.
